Data from patent US9849116B2 (KNOPP BIOSCIENCES LLC, priority 2008, dated 2017).
Several values for one entry are separate records, joined by “and”; a condition that tells them apart may be missing. Equal values may be shown once. Read-outs that look alike come from different tables or passages of the source.

How the values were obtained:
[1] = in vivo; details: male, dog, po
Method: (§4) Three groups of four non-naïve male beagle dogs were used in the study. […] Doses were administered orally by gavage and clinical observations were taken continuously following dosing: hourly for the first four hours, and then twice daily cage-side observations for the duration of the inter-dose or post-dose interval. Observations were made of clinical signs, mortality, injury and availability of food and water. Animals were fasted for 24 hr prior to dosing. Dogs in each group were exposed to only one drug, or the combination; each dose was administered only once, with a subsequent dose administered after a recovery period of 4 days.

[2] = system: rats; experiment: in vivo
Method: (§1) Following this study, 3- and 6-month repeat dose toxicology studies were completed at doses of 30, 100, and 300 mg/kg.

[3] = in vivo; details: both, rat, in vivo
Method: as §1

[4] = system: minipigs
[5] = system: rats; details: 6 months, 30, 100, 300 mg/kg
[6] = clinical; details: human; for AUC(0-t): AUC(0-t) (mean ± SD); for Vd/F: Vz/F (mean ± SD); for CL renal: plasma and urine
Method: (§2) Safety observations included vital signs, physical examination, clinical laboratory tests, ECGs, and adverse event reporting. Blood and urine samples were collected pre-dose and for 72 hours post-dose to assess the pharmacokinetics.

[7] = system: healthy volunteers; experiment: clinical
Method: as §2

[8] = in vivo; details: both, minipig
[9] = system: minipigs; details: 6 months
[10] = molecular target: D1 dopamine receptor (Homo sapiens, UniProt P21728)
Method: (§3) These concentrations were tested in cell lines expressing select human cloned dopamine receptors (D2S, D3).

[11] = molecular target: D5 dopamine receptor (Homo sapiens, UniProt P21918)
Method: as §3

[12] = in vivo; details: both, minipig; remark: listed apart in the source
[13] = system: male beagle dogs
Method: as §4

[14] = system: healthy volunteers
Method: (§5) The first panel was administered a singe dose of 50 mg, followed 48 hours later by 4½ days of multiple dosing (twice daily) at 50 mg Q12 hours. The second panel was administered a singe dose of 100 mg, followed 48 hours later by 4½ days of multiple dosing (twice daily) at 100 mg Q12 hours. Safety observations included vital signs, physical examination, clinical laboratory tests, ECGs, and adverse event reporting. Blood samples were collected pre-dose on Day 1 and serially for 48 hours post-dose to assess the single-dose pharmacokinetics.

[15] = system: minipigs; details: ongoing 9-month study past month 7
[16] = clinical; details: human, plasma
Method: as §5

[17] = plasma, po, 50 mg, single 50 mg oral dose, fasted
[18] = plasma, po, 150 mg, single 150 mg oral dose, fasted
[19] = plasma, po, 150 mg, single 150 mg oral dose, fed
[20] = plasma, po, 300 mg, single 300 mg oral dose, fasted
[21] = single 150 mg oral dose, fasted
[22] = single 300 mg oral dose, fasted
[23] = Day 1, 100 mg oral dose, fasted
[24] = Day 7, 50 mg Q12H on Days 3 through 6 and a single dose on Day 7, fasted
[25] = Day 7, 100 mg Q12H on Days 3 through 6 and a single dose on Day 7, fasted

Chain of D1 dopamine receptor (P21728 whole entry): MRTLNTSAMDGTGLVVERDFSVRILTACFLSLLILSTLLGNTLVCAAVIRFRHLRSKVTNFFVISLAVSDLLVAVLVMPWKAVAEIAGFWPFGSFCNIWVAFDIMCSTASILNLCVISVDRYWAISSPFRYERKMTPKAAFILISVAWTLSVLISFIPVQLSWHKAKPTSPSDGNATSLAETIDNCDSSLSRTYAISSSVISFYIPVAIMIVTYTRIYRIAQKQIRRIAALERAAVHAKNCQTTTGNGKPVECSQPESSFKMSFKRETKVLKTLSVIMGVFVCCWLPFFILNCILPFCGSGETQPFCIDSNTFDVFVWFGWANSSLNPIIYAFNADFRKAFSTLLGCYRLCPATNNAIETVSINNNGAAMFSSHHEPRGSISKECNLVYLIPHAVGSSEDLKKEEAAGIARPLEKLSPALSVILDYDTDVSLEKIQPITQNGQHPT
Chain of D5 dopamine receptor (P21918 whole entry): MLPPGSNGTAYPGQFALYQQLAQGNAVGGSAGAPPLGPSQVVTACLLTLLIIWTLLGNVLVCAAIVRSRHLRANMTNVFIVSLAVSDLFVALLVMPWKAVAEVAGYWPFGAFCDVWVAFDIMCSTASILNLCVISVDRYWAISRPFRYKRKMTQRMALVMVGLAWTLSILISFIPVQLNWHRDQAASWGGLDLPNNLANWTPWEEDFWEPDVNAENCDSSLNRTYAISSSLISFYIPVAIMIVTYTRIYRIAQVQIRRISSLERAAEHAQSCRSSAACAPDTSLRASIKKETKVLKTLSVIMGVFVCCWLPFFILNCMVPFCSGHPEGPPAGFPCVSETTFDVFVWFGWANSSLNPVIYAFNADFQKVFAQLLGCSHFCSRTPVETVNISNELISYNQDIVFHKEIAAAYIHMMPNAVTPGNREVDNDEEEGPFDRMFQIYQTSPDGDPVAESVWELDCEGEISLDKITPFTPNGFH

## CCCN[C@@H]1CCc2nc(N)sc2C1 [(R)-pramipexole, (6R)-4,5,6,7-tetrahydro-N6-propyl-2,6-benzothiazole-diamine]
[1]
  MTD at 4 days: 75 mg/kg
  NOAEL at 4 days: 25 mg/kg
[2]; rat, in vivo, 300 mg/kg
  target organ toxicity by histopathology examination: some target organ toxicity
[2]; rats, 3 months, 30, 100, 300 mg/kg
  test article related deaths: no test article related deaths
[2]; rats, high dose 500 mg/kg, 14 days
  mortality: caused mortality
[3]
  NOAEL at 3 months: 100 mg/kg
  NOAEL at 14 days: 150 mg/kg
[4]; both, minipig, in vivo, 75 mg/kg, 14 days
  incidence of emesis (at least one episode): 5 of 8
[4]; minipigs, 2 weeks (14 days)
  NOAEL: greater than or equal to 75 mg/kg
[5]
  mortality between the 13-week and 26-week sacrifices: no mortalities at any dose level
[6]; blood, po, 50 mg, single 50 mg oral dose, fasted
  AUC(0-t): 989 ng·h/mL
[6]; blood, po, 50 mg, AUC(inf) (mean ± SD), single 50 mg oral dose, fasted
  AUC(0-inf): 1240 ng·h/mL
[6]; blood, po, 150 mg, single 150 mg oral dose, fasted
  AUC(0-t): 3390 ng·h/mL
[6]; blood, po, 150 mg, AUC(inf) (mean ± SD), single 150 mg oral dose, fasted
  AUC(0-inf): 3820 ng·h/mL
[6]; blood, po, 300 mg, single 300 mg oral dose, fasted
  AUC(0-t): 8340 ng·h/mL
[6]; in vivo, oral, 150 mg
  Cmax: 315 ± 62 ng/mL
  Tmax: 2.58 h
[6]; in vivo, oral, 150 mg, AUC (inf) (mean ± SD), CL001, 150 mg SD, second 150 mg line, Food printed Fasted
  AUC(0-inf): 3400 ng·h/mL
[6]; in vivo, oral, 150 mg, CL001, 150 mg SD, second 150 mg line, Food printed Fasted
  AUC(0-t): 3100 ng·h/mL
[6]; in vivo, oral, 150 mg, 150 mg SD, second 150 mg line, Food printed Fasted
  Vd/F: 406 ± 62.8 L
[6]; in vivo, po, 300 mg, AUC(inf) (mean ± SD), single 300 mg oral dose, fasted
  AUC(0-inf): 8620 ng·h/mL
[6]; po, 50 mg
  CL renal: 628 ± 149 mL/min
[6]; po, 150 mg
  CL renal: 310 ± 74.3 mL/min
[6]; po, 300 mg
  CL renal: 441 ± 159 mL/min
[6]; [17]
  AUC(0-t): 989 ± 295 ng·h/mL
  Vd/F: 395 ± 61.9 L
[6]; plasma, po, 50 mg, AUC(inf) (mean ± SD), single 50 mg oral dose, fasted
  AUC(0-inf): 1250 ng·h/mL
[6]; plasma, po, 50 mg, mean exposure (AUC0-∞), single oral 50 mg, fasted
  AUC(0-inf): 1250 ng·h/mL
[6]; plasma, po, 150 mg
  Cmax: 360 ng/mL
[6]; [18]
  AUC(0-t): 3390 ng·h/mL
  Vd/F: 411 ± 81 L
[6]; [19]
  AUC(0-t): 3100 ng·h/mL
  Vd/F: 406 ± 62.8 L
[6]; plasma, po, 150 mg, AUC(inf) (mean ± SD), single 150 mg oral dose, fasted
  AUC(0-inf): 3820 ng·h/mL
[6]; plasma, po, 150 mg, AUC(inf) (mean ± SD), single 150 mg oral dose, fed
  AUC(0-inf): 3400 ng·h/mL
[6]; plasma, po, 150 mg, mean exposure (AUC0-∞), single oral 150 mg, fasted
  AUC(0-inf): 3820 ng·h/mL
[6]; plasma, po, 300 mg
  Cmax: 781 ng/mL
  Tmax: 1.96 h
[6]; [20]
  AUC(0-t): 8340 ng·h/mL
  Vd/F: 346 ± 98.5 L
[6]; plasma, po, 300 mg, AUC(inf) (mean ± SD), single 300 mg oral dose, fasted
  AUC(0-inf): 8620 ng·h/mL
[6]; plasma, po, 300 mg, mean exposure (AUC0-∞), single oral 300 mg, fasted
  AUC(0-inf): 8620 ng·h/mL
[7]; 50 mg SD, Fasted
  CL/F (mean ± SD): 706 ± 182 mL/h
[7]; 150 mg SD, Fasted
  CL/F (mean ± SD): 692 ± 183 mL/h
[7]; 150 mg SD, second 150 mg line, Food printed Fasted
  CL/F (mean ± SD): 774 ± 165 mL/h
[7]; 300 mg SD, Fasted
  CL/F (mean ± SD): 659 ± 260 mL/h
[7]; across dose levels
  urinary excretion of unchanged drug, share of drug elimination: approximately 70%
[7]; single 50 mg oral dose, fasted
  CL/F (mean ± SD): 42400 ± 10900 mL/h
  Fe (mean ± SD): 70.7 ± 10.4 % Dose
  Ue (mean ± SD): 35.3 ± 5.19 mg and 35.3 ± 5.19 ^ mg
  λz (mean ± SD): 0.1064 ± 0.0171 h⁻¹
[7]; [21]
  CL/F (mean ± SD): 41500 ± 11000 mL/h
  Fe (mean ± SD): 40.3 ± 4.69 % Dose
  Ue (mean ± SD): 60.5 ± 7.04 mg and 60.5 ± 7.04 ^ mg
  λz (mean ± SD): 0.1001 ± 0.0087 h⁻¹
[7]; single 150 mg oral dose, fed
  CL/F (mean ± SD): 46400 ± 9900 mL/h
  λz (mean ± SD): 0.1152 ± 0.0256 h⁻¹
[7]; single 150 mg, fed versus fasted
  effect of a high fat/high calorie meal on absorption and elimination: essentially no effect
[7]; [22]
  CL/F (mean ± SD): 39500 ± 15600 mL/h
  Fe (mean ± SD): 65.8 ± 9.33 % Dose
  Ue (mean ± SD): 198 ± 28.0 mg and 198 ± 28.0 ^ mg
  λz (mean ± SD): 0.1151 ± 0.0309 h⁻¹
[7]; single oral 50, 150, 300 mg
  time of maximum concentration post-dose: approximately 2 hours
[7]; single oral doses of 50, 150, 300 mg
  safety and tolerability: safe and well-tolerated
[8]
  NOAEL at 14 days: 75 mg/kg
[9]
  mortality and clinical observations between the 13-week and 26-week sacrifices: no mortalities attributed to test article or significant clinical observations
[10]
  interaction with D1 dopamine receptor: no significant interaction
[11]
  interaction with D5 dopamine receptor: no significant interaction
[12]
  NOAEL at 3 months: 50 mg/kg
[13]; based on dog data, 70 kg human subject
  human equivalence dose of the MTD: about 3,000 mg
[13]; dog, in vivo
  observable effects in dogs: no observable effects
[13]; male, beagle, dog, in vivo, 4 days
  functional separation between the (S)- and (R)-enantiomers: 10,000-20,000 fold
[14]; 50 mg Q12H
  increase of AUC(0-12) from Day 1 to Day 7: 40%
  increase of Cmax from Day 1 to Day 7: 37%
[14]; 50 mg Q12H (Day 1), Fasted
  CL/F (mean ± SD): 571 ± 107 mL/h
[14]; 50 mg Q12H (Day 7), Fasted
  CL/F (mean ± SD): 585 ± 81.6 mL/h
[14]; 100 mg Q12H
  increase of AUC(0-12) from Day 1 to Day 7: 38%
  increase of Cmax from Day 1 to Day 7: 24%
[14]; 100 mg Q12H (Day 1), Fasted
  CL/F (mean ± SD): 665 ± 107 mL/h
[14]; 100 mg Q12H (Day 7), Fasted
  CL/F (mean ± SD): 684 ± 76.1 mL/h
[14]; Day 1, 50 mg oral dose, fasted
  AUC(0−12) (mean ± SD): 1,035 ± 121 h · ng/mL
  AUC(0−t) (mean ± SD): 1,463 ± 280 h · ng/mL
  AUC(inf) (mean ± SD): 1,502 ± 280 h · ng/mL
  CL/F (mean ± SD): 34300 ± 6420 mL/h
  λz (mean ± SD): 0.1132 ± 0.0230 h⁻¹
[14]; [23]
  AUC(0−12) (mean ± SD): 1,776 ± 260 h · ng/mL
  AUC(0−t) (mean ± SD): 2,545 ± 497 h · ng/mL
  CL/F (mean ± SD): 39900 ± 6420 mL/h
  λz (mean ± SD): 0.1073 ± 0.0161 h⁻¹
[14]; [24]
  AUC(0-12) (mean ± SD): 1,449 ± 221 h · ng/mL
  CL/F (mean ± SD): 35100 ± 4900 mL/h
  λz (mean ± SD): 0.1025 ± 0.0186 h⁻¹
[14]; [25]
  AUC(0-12) (mean ± SD): 2,465 ± 299 h · ng/mL
  CL/F (mean ± SD): 41000 ± 4570 mL/h
  λz (mean ± SD): 0.0894 ± 0.0117 h⁻¹
[14]; humans, total daily dose 500 mg as 250 mg Q12H
  projected steady-state exposure (AUC): approximately 7,000 h*ng/mL
[14]; multiple oral doses of 50 and 100 mg twice daily
  safety and tolerability: safe and well-tolerated
[15]
  deaths and clinical observations: no deaths attributed to test article or significant clinical observations
[16]; oral, 50 mg
  Cmax: 191 ± 20.9 ng/mL
  Tmax: 1.75 h
  Vd/F: 346 ± 30.1 L
[16]; oral, 50 mg, AUC(0-12) (mean ± SD), Day 7, 50 mg Q12H on Days 3 through 6 and a single dose on Day 7, fasted
  AUC(0-t): 1450 ng·h/mL
[16]; oral, 50 mg, mean exposure AUC(0-12) at Day 7, 50 mg Q12H
  AUC(0-t): 1450 ng·h/mL
[16]; oral, 100 mg
  Cmax: 306 ± 55 ng/mL
  Tmax: 2 h
[16]; oral, 100 mg, AUC(0-12) (mean ± SD), Day 7, 100 mg Q12H on Days 3 through 6 and a single dose on Day 7, fasted
  AUC(0-t): 2460 ng·h/mL
[16]; oral, 100 mg, mean exposure AUC(0-12) at Day 7, 100 mg Q12H
  AUC(0-t): 2460 ng·h/mL
[16]; po, 50 mg
  AUC(0-inf): 1500 ng·h/mL
  Tmax: 1.83 h
  Vd/F: 306 ± 45.8 L
[16]; po, 50 mg, AUC(0−12) (mean ± SD), Day 1, 50 mg oral dose, fasted
  AUC(0-t): 1040 ng·h/mL
[16]; po, 50 mg, AUC(0−t) (mean ± SD), Day 1, 50 mg oral dose, fasted
  AUC(0-t): 1460 ng·h/mL
[16]; po, 100 mg
  AUC(0-inf): 2570 ng·h/mL
  Cmax: 248 ± 30.4 ng/mL
  Tmax: 1.92 h
  Vd/F: 373 ± 51 L
[16]; po, 100 mg, AUC(0−12) (mean ± SD), Day 1, 100 mg oral dose, fasted
  AUC(0-t): 1780 ng·h/mL
[16]; po, 100 mg, AUC(0−t) (mean ± SD), Day 1, 100 mg oral dose, fasted
  AUC(0-t): 2540 ng·h/mL
